Laboratory results published in US20260042731A1, “(2,4-DICHLOROPHENOXY)ACETIC ACID ANALOGS” (CORTEVA AGRISCIENCE LLC, priority 2022, published 2026).
Read-outs that look alike come from different tables or passages of the source.

Experiments:
[1] = tested on: Amaranthus rudis (AMATA), tall water hemp; assay: Postemergence herbicide evaluation, growth of Amaranthus rudis (AMATA); format: in vivo; conditions: Amaranthus tuberculatus, post-emergence, percent reduction in plant size vs untreated control, read-out: Ave. AMATA; for pest or weed control at 280 g/ha: 280 g ae/ha; for pest or weed control at 560 g/ha: 560 g ae/ha
[2] = tested on: Ambrosia artemisiifolia (AMBEL), common ragweed; assay: Postemergence herbicide evaluation, growth of Ambrosia artemisiifolia (AMBEL); format: in vivo; conditions: Ambrosia artemisiifolia, post-emergence, percent reduction in plant size vs untreated control, read-out: AVE. AMBEL; for pest or weed control at 280 g/ha: 280 g ae/ha; for pest or weed control at 560 g/ha: 560 g ae/ha
[3] = tested on: Abutilon theophrasti (ABUTH), velvetleaf; assay: Postemergence herbicide evaluation, growth of Abutilon theophrasti (ABUTH); format: in vivo; conditions: Abutilon theophrasti, post-emergence, percent reduction in plant size vs untreated control, read-out: AVE. ABUTH; for pest or weed control at 280 g/ha: 280 g ae/ha; for pest or weed control at 560 g/ha: 560 g ae/ha
[4] = tested on: Chenopodium album (CHEAL), common lambsquarters; assay: Postemergence herbicide evaluation, growth of Chenopodium album (CHEAL); format: in vivo; conditions: Chenopodium album, post-emergence, percent reduction in plant size vs untreated control, read-out: Ave. CHEAL; for pest or weed control at 280 g/ha: 280 g ae/ha; for pest or weed control at 560 g/ha: 560 g ae/ha
[5] = tested on: glyphosate resistant Conyza canadensis (L.) (ERICA), horseweed; assay: Postemergence herbicide evaluation, growth of Conyza canadensis (ERICA); format: in vivo; conditions: Erigeron canadensis, post-emergence, percent reduction in plant size vs untreated control, read-out: Ave. ERICA; for pest or weed control at 280 g/ha: 280 g ae/ha; for pest or weed control at 560 g/ha: 560 g ae/ha
[6] = Volatility of compounds measured by thermogravimetric analysis (TGA); format: physicochemical
[7] = tested on: weeds ABUTH, AMATA, AMBEL, CHEAL, ERICA; assay: Postemergence herbicide evaluation, overall average % weed control across ABUTH, AMATA, AMBEL, CHEAL and ERICA; format: in vivo; conditions: post-emergence, average over five weeds, read-out: Overall Ave % Weed Control; for pest or weed control at 280 g/ha: 280 g ae/ha; for pest or weed control at 560 g/ha: 560 g ae/ha

Structure (SMILES): O=C(COc1ccc(Cl)cc1Cl)NOCCc1ccccc1 [Compound D18]
- pest or weed control at 280 g/ha ([1]; 168 h, 7 DAA): 72.5%
- pest or weed control at 560 g/ha ([1]; 168 h, 7 DAA): 96%
- pest or weed control at 280 g/ha ([1]; 336 h, 14 DAA): 87.5%
- pest or weed control at 560 g/ha ([1]; 336 h, 14 DAA): 96%
- pest or weed control at 280 g/ha ([1]; 504 h, 21 DAA): 75%
- pest or weed control at 560 g/ha ([1]; 504 h, 21 DAA): 95%
- pest or weed control at 280 g/ha ([2]; 168 h, 7 DAA): 75%
- pest or weed control at 560 g/ha ([2]; 168 h, 7 DAA): 91%
- pest or weed control at 280 g/ha ([2]; 336 h, 14 DAA): 80%
- pest or weed control at 560 g/ha ([2]; 336 h, 14 DAA): 95%
- pest or weed control at 280 g/ha ([2]; 504 h, 21 DAA): 100%
- pest or weed control at 560 g/ha ([2]; 504 h, 21 DAA): 100%
- pest or weed control at 280 g/ha ([3]; 168 h, 7 DAA): 67.5%
- pest or weed control at 560 g/ha ([3]; 168 h, 7 DAA): 72.5%
- pest or weed control at 280 g/ha ([3]; 336 h, 14 DAA): 85%
- pest or weed control at 560 g/ha ([3]; 336 h, 14 DAA): 96.5%
- pest or weed control at 280 g/ha ([3]; 504 h, 21 DAA): 100%
- pest or weed control at 560 g/ha ([3]; 504 h, 21 DAA): 99.5%
- pest or weed control at 280 g/ha ([4]; 168 h, 7 DAA): 75%
- pest or weed control at 560 g/ha ([4]; 168 h, 7 DAA): 75%
- pest or weed control at 280 g/ha ([4]; 336 h, 14 DAA): 97.5%
- pest or weed control at 560 g/ha ([4]; 336 h, 14 DAA): 92.5%
- pest or weed control at 280 g/ha ([4]; 504 h, 21 DAA): 92.5%
- pest or weed control at 560 g/ha ([4]; 504 h, 21 DAA): 100%
- pest or weed control at 280 g/ha ([5]; 168 h, 7 DAA): 85%
- pest or weed control at 560 g/ha ([5]; 168 h, 7 DAA): 85%
- pest or weed control at 280 g/ha ([5]; 336 h, 14 DAA): 99%
- pest or weed control at 560 g/ha ([5]; 336 h, 14 DAA): 98%
- pest or weed control at 280 g/ha ([5]; 504 h, 21 DAA): 100%
- pest or weed control at 560 g/ha ([5]; 504 h, 21 DAA): 98%
- TGA Data (rate of weight loss, volatility) [6]: 0.1777 µg/min
- pest or weed control at 280 g/ha ([7]; 168 h, 7 DAA): 75%
- pest or weed control at 560 g/ha ([7]; 168 h, 7 DAA): 83.9%
- pest or weed control at 280 g/ha ([7]; 336 h, 14 DAA): 89.8%
- pest or weed control at 560 g/ha ([7]; 336 h, 14 DAA): 95.6%
- pest or weed control at 280 g/ha ([7]; 504 h, 21 DAA): 93.5%
- pest or weed control at 560 g/ha ([7]; 504 h, 21 DAA): 98.5%

Structure (SMILES): C/C(=N\OC(=O)COc1ccc(Cl)cc1Cl)C(=O)c1ccccc1 [Compound A22]
- pest or weed control at 280 g/ha ([1]; 168 h, 7 DAA): 70%
- pest or weed control at 560 g/ha ([1]; 168 h, 7 DAA): 87.5%
- pest or weed control at 280 g/ha ([1]; 336 h, 14 DAA): 87.5%
- pest or weed control at 560 g/ha ([1]; 336 h, 14 DAA): 92.5%
- pest or weed control at 280 g/ha ([1]; 504 h, 21 DAA): 65%
- pest or weed control at 560 g/ha ([1]; 504 h, 21 DAA): 87.5%
- pest or weed control at 280 g/ha ([2]; 168 h, 7 DAA): 77.5%
- pest or weed control at 560 g/ha ([2]; 168 h, 7 DAA): 82.5%
- pest or weed control at 280 g/ha ([2]; 336 h, 14 DAA): 67.5%
- pest or weed control at 560 g/ha ([2]; 336 h, 14 DAA): 92.5%
- pest or weed control at 280 g/ha ([2]; 504 h, 21 DAA): 100%
- pest or weed control at 560 g/ha ([2]; 504 h, 21 DAA): 100%
- pest or weed control at 280 g/ha ([3]; 168 h, 7 DAA): 62.5%
- pest or weed control at 560 g/ha ([3]; 168 h, 7 DAA): 70%
- pest or weed control at 280 g/ha ([3]; 336 h, 14 DAA): 82.5%
- pest or weed control at 560 g/ha ([3]; 336 h, 14 DAA): 98.5%
- pest or weed control at 280 g/ha ([3]; 504 h, 21 DAA): 97%
- pest or weed control at 560 g/ha ([3]; 504 h, 21 DAA): 99.5%
- pest or weed control at 280 g/ha ([4]; 168 h, 7 DAA): 75%
- pest or weed control at 560 g/ha ([4]; 168 h, 7 DAA): 80%
- pest or weed control at 280 g/ha ([4]; 336 h, 14 DAA): 97.5%
- pest or weed control at 560 g/ha ([4]; 336 h, 14 DAA): 99%
- pest or weed control at 280 g/ha ([4]; 504 h, 21 DAA): 87.5%
- pest or weed control at 560 g/ha ([4]; 504 h, 21 DAA): 97.5%
- pest or weed control at 280 g/ha ([5]; 168 h, 7 DAA): 87.5%
- pest or weed control at 560 g/ha ([5]; 168 h, 7 DAA): 77.5%
- pest or weed control at 280 g/ha ([5]; 336 h, 14 DAA): 100%
- pest or weed control at 560 g/ha ([5]; 336 h, 14 DAA): 100%
- pest or weed control at 280 g/ha ([5]; 504 h, 21 DAA): 99%
- pest or weed control at 560 g/ha ([5]; 504 h, 21 DAA): 99.5%
- TGA Data (rate of weight loss, volatility) [6]: 0.42 µg/min
- pest or weed control at 280 g/ha ([7]; 168 h, 7 DAA): 74.5%
- pest or weed control at 560 g/ha ([7]; 168 h, 7 DAA): 79.5%
- pest or weed control at 280 g/ha ([7]; 336 h, 14 DAA): 87%
- pest or weed control at 560 g/ha ([7]; 336 h, 14 DAA): 96.5%
- pest or weed control at 280 g/ha ([7]; 504 h, 21 DAA): 89.7%
- pest or weed control at 560 g/ha ([7]; 504 h, 21 DAA): 96.8%

Structure (SMILES): O=C(COc1ccc(Cl)cc1Cl)Nc1ccnc(Cl)c1 [Compound D13]
- pest or weed control at 280 g/ha ([1]; 168 h, 7 DAA): 72.5%
- pest or weed control at 560 g/ha ([1]; 168 h, 7 DAA): 75%
- pest or weed control at 280 g/ha ([1]; 336 h, 14 DAA): 91%
- pest or weed control at 560 g/ha ([1]; 336 h, 14 DAA): 84%
- pest or weed control at 280 g/ha ([1]; 504 h, 21 DAA): 80%
- pest or weed control at 560 g/ha ([1]; 504 h, 21 DAA): 92%
- pest or weed control at 280 g/ha ([2]; 168 h, 7 DAA): 70%
- pest or weed control at 560 g/ha ([2]; 168 h, 7 DAA): 75%
- pest or weed control at 280 g/ha ([2]; 336 h, 14 DAA): 75%
- pest or weed control at 560 g/ha ([2]; 336 h, 14 DAA): 91%
- pest or weed control at 280 g/ha ([2]; 504 h, 21 DAA): 94%
- pest or weed control at 560 g/ha ([2]; 504 h, 21 DAA): 50%
- pest or weed control at 280 g/ha ([3]; 168 h, 7 DAA): 35%
- pest or weed control at 560 g/ha ([3]; 168 h, 7 DAA): 32.5%
- pest or weed control at 280 g/ha ([3]; 336 h, 14 DAA): 40%
- pest or weed control at 560 g/ha ([3]; 336 h, 14 DAA): 35%
- pest or weed control at 280 g/ha ([3]; 504 h, 21 DAA): 57.5%
- pest or weed control at 560 g/ha ([3]; 504 h, 21 DAA): 37.5%
- pest or weed control at 280 g/ha ([4]; 168 h, 7 DAA): 77.5%
- pest or weed control at 560 g/ha ([4]; 168 h, 7 DAA): 75%
- pest or weed control at 280 g/ha ([4]; 336 h, 14 DAA): 95%
- pest or weed control at 560 g/ha ([4]; 336 h, 14 DAA): 98%
- pest or weed control at 280 g/ha ([4]; 504 h, 21 DAA): 90%
- pest or weed control at 560 g/ha ([4]; 504 h, 21 DAA): 92.5%
- pest or weed control at 280 g/ha ([5]; 168 h, 7 DAA): 80%
- pest or weed control at 560 g/ha ([5]; 168 h, 7 DAA): 82.5%
- pest or weed control at 280 g/ha ([5]; 336 h, 14 DAA): 92.5%
- pest or weed control at 560 g/ha ([5]; 336 h, 14 DAA): 91.5%
- pest or weed control at 280 g/ha ([5]; 504 h, 21 DAA): 97.5%
- pest or weed control at 560 g/ha ([5]; 504 h, 21 DAA): 99%
- TGA Data (rate of weight loss, volatility) [6]: 0.06009 µg/min
- pest or weed control at 280 g/ha ([7]; 168 h, 7 DAA): 67%
- pest or weed control at 560 g/ha ([7]; 168 h, 7 DAA): 68%
- pest or weed control at 280 g/ha ([7]; 336 h, 14 DAA): 78.7%
- pest or weed control at 560 g/ha ([7]; 336 h, 14 DAA): 79.9%
- pest or weed control at 280 g/ha ([7]; 504 h, 21 DAA): 83.8%
- pest or weed control at 560 g/ha ([7]; 504 h, 21 DAA): 74.2%
